Laboratory results from patent publication US6761922B2, “Sweetener compositions containing aspartyl dipeptide ester compounds” (Ajinomoto Co., Inc., priority 1999, dated 2004).
Where two headings read alike, the source gives them in different places. Where a SMILES comes first, the peptide text is derived from it.

Key:
[1] = Standing test of suspension at room temperature (precipitation); type: physicochemical; settings: 1.0 weight part in 70 weight parts of water, homogenized, 7 days
[2] = Sensory evaluation in coffee against 4% sucrose coffee, after production and after storage; type: in vivo; settings: 60 days at room temperature, judged from sweetness
Description: And, the sweetener composition in the form of suspension was poured into the sealed container and stood still at room temperature for 60 days.

[3] = Magnification of sweetness intensity stated or used for calculating the sweetness of compositions; settings: for magnification of sweetness intensity of the derivative as stated for the formulation: value used as basis of calculation, vs sucrose
[4] = Time required to dissolve completely in 500 ml of water with stirring; type: physicochemical; settings: 0.0234 g of powder in 500 ml of water, 25° C., 200 rpm
Procedure: When 50 g of the suspension of the derivative (derivative content 0.0234 g) were added to 500 ml of water (25° C.) with stirring (200 rpm), and the time required to dissolve completely was measured, it took 50 seconds. When 0.0234 g of the powder of the derivative 1, as a reference product, were added to 500 ml of water (25° C.) with stirring (200 rpm) in the same way, and the time required to dissolve completely was measured, it took not less than 3 minutes.

[5] = Measurement of the magnification of sweetness intensity in cola beverage (sensory evaluation against cola with sucrose); type: in vivo; settings: control cola beverage containing 10% sucrose
Description: (§1) The sweetness intensity of the solution of derivative 2 was 8.75% according to the following equation: (10.0−8.33)×0.25+8.33=8.75. Therefore, the magnification of sweetness of derivative 2 was 5600 (=8.75/0.00155) times that of sucrose. According to the same experiment, the magnification of sweetness intensity of derivative 1 was 22600 times that of sucrose. Further, the magnification of sweetness intensity of other derivatives (3 to 9) can be determined in the same manner. And the magnification of sweetness intensity in a cola beverage can be also determined by the same method compared to the control solution of cola beverage containing 10% sucrose.
Incidentally, the composition of cola beverage is as follows.
Incidentally, as for the concentration of the references, the sucrose concentrations of previous (a) to (e) were used.

[6] = Solubility; type: physicochemical; settings: 25° C.
[7] = Measurement of the magnification of sweetness intensity in aqueous solution (sensory evaluation against sucrose solutions); type: in vivo; settings: for magnification of sweetness intensity, times that of sucrose: aqueous solution, PSE 10% concentration, 20 panelists
Procedure: [Method for Determining the Magnification of Sweetness Intensity]
An aqueous solution was prepared by diluting derivative 2 to be PSE 10% concentration (15.5 mg/1000 ml=10/6500 g/100 ml), assuming that the intensity of sweetness of derivative 2 was 6500 times that of sucrose. Separately, aqueous sucrose solutions having sucrose concentrations of (a)6.94%, (b)8.33%, (c)10%, (d)12%, and (e)14.4% were prepared. The sensory evaluation was performed by determining which sucrose solution was closest to the solution of derivative 2 in the sweetness intensity. The result of calculation of the average of points of 20 panelists was 2.25 point.
as §1

[8] = Rate of dissolving and dispersibility of granular products in water; type: physicochemical; settings: crude powder in hot water; insoluble coagulates formed
Procedure: *1: As for the rate of dissolving, the distilled water was poured in the 500 ml beaker, 1 g of sample was added to the beaker with gentle mixing by magnetic stirring, and the time of dissolving was measured.

[9] = cited from earlier work; for sweetness intensity, times that of sucrose by weight: reported in prior publications
[10] = value used as basis of calculation, vs sucrose; cited from earlier work

For `COC(=O)[C@H](Cc1ccccc1)NC(=O)[C@H](CC(=O)O)NCCCc1ccc(OC)c(O)c1` [Derivative 1, N-[N-[3-(3-hydroxy-4-methoxyphenyl)propyl]-L-α-aspartyl]-L-phenylalanine 1-methyl ester], the precipitation on standing [1] was “all suspended substances were precipitated”, the “stability of the derivative in the suspension” value [2] was “not decomposed” and the “magnification of sweetness intensity at PSE 4%” value ([3]; at PSE 4%, was calculated as) was 18500 times. The “magnification of sweetness intensity of the derivative as stated for the formulation” value (from here on “magnification … for the formulation”) [3] was 22600 times, the “time required to dissolve completely” value [4] was “not less than 3 minutes” and the “Magnification of sweetness intensity relative to sucrose, in cola beverage” value [5] was 22600. For the same compound, the “solubility against isomerised sugar "Fujikraft"” value [6] was 0.035 g/100 ml, the solubility in water [6] was 0.152 g/100 ml and the “magnification of sweetness intensity, times that of sucrose” value [7] was 22600 times. For the same compound, the “Magnification of sweetness intensity relative to sucrose, in aqueous solution” value [7] was 22600.
For `COC(=O)[C@H](Cc1ccccc1)NC(=O)[C@H](CC(=O)O)NCCCc1ccc(OC)cc1` [Derivative 2, N-[N-[3-(4-methoxyphenyl)propyl]-L-α-aspartyl]-L-phenylalanine 1-methyl ester], the “magnification … for the formulation” value [3] was 5000 times, the “Magnification of sweetness intensity (vs. sucrose)” value ([3]; value used for Example 9 suspension) was 5000 and the “Magnification of sweetness intensity relative to sucrose, in cola beverage” value [5] was 4900. The “time without reaching complete dissolution” value [8] was > 5 min, the solubility in water [6] was 0.009 g/100 ml and the “sweetness intensity of the solution (sucrose equivalent)” value ([7]; 15.5 mg/1000 ml aqueous solution) was 8.75%. For the same compound, the “magnification of sweetness intensity, times that of sucrose” value [7] was 5600 times and the “Magnification of sweetness intensity relative to sucrose, in aqueous solution” value [7] was 5500.
In the case of `COC(=O)[C@H](Cc1ccccc1)NC(=O)[C@H](CC(=O)O)NCCC(C)(C)C` [Neotame], the “sweetness intensity, times that of sucrose by weight” value [9] is given as 10000 times.
For `OC[C@@H](O)[C@@H](O[C@H]1O[C@H](CO)[C@@H](O)[C@H](O)[C@H]1O)[C@H](O)[C@@H](O)CO` [maltitole], the “magnification of sweetness intensity of filler used for calculation” value [10] is given as 0.75.
For `COC(=O)[C@H](Cc1ccccc1)NC(=O)[C@H](CC(=O)O)NCCCc1ccc(O)c(C)c1` [Derivative 8, N-[N-[3-(3-methyl-4-hydroxyphenyl)propyl]-L-α-aspartyl]-L-phenylalanine 1-methyl ester], the “Magnification of sweetness intensity relative to sucrose, in cola beverage” value [5] was 15800 and the “Magnification of sweetness intensity relative to sucrose, in aqueous solution” value [7] was 18200.
In the case of `COC(=O)[C@H](Cc1ccccc1)NC(=O)[C@H](CC(=O)O)NCCC(C)(C)c1ccc(OC)cc1` [Derivative 5, N-[N-[3-(4-methoxyphenyl)-3-methylbutyl]-L-α-aspartyl]-L-phenylalanine 1-methyl ester], the “Magnification of sweetness intensity relative to sucrose, in cola beverage” value [5] is reported as 8000 and the “Magnification of sweetness intensity relative to sucrose, in aqueous solution” value [7] is reported as 8400.
In the case of `COC(=O)[C@H](Cc1ccccc1)NC(=O)[C@@H](N)CC(=O)O` [Aspartame] (H-Asp-Phe-OMe), the “magnification of sweetness intensity at PSE 0.5%” value ([3]; was calculated as) is given as 360 times, the “Magnification of sweetness intensity (vs. sucrose)” value ([9]; reference sweetener in Example 9) is given as 200 and the “sweetness intensity, times that of sucrose by weight” value [9] is given as 200 times.
In the case of `COC(=O)[C@H](Cc1ccccc1)NC(=O)[C@H](CC(=O)O)NCCCc1ccc(O)cc1O` [Derivative 9, N-[N-[3-(2,4-dihydroxyphenyl)propyl]-L-α-aspartyl]-L-phenylalanine 1-methyl ester], the “Magnification of sweetness intensity relative to sucrose, in cola beverage” value [5] is reported as 7500 and the “Magnification of sweetness intensity relative to sucrose, in aqueous solution” value [7] is reported as 8000.
For `OC[C@@H](O)[C@@H](O)CO` [Erythritol], the “magnification of sweetness intensity at PSE 0.5%” value ([3]; was calculated as) was 0.75 times.
In the case of `COC(=O)[C@H](Cc1ccccc1)NC(=O)[C@H](CC(=O)O)NCCC(C)(C)c1ccc(O)cc1` [Derivative 6, N-[N-[3-(4-hydroxyphenyl)-3-methylbutyl]-L-α-aspartyl]-L-phenylalanine 1-methyl ester], the “magnification … for the formulation” value [3] is reported as 14000 times, the “Magnification of sweetness intensity relative to sucrose, in cola beverage” value [5] is reported as 14000 and the “Magnification of sweetness intensity relative to sucrose, in aqueous solution” value [7] is reported as 14900.
For `COC(=O)[C@H](Cc1ccccc1)NC(=O)[C@H](CC(=O)O)NCCCc1ccc(OC)cc1O` [Derivative 7, N-[N-[3-(2-hydroxy-4-methoxyphenyl)propyl]-L-α-aspartyl]-L-phenylalanine 1-methyl ester], the “Magnification of sweetness intensity relative to sucrose, in cola beverage” value [5] was 10600 and the “Magnification of sweetness intensity relative to sucrose, in aqueous solution” value [7] was 11100.
In the case of `COC(=O)[C@H](Cc1ccccc1)NC(=O)[C@H](CC(=O)O)NCCC(C)(C)c1ccc(OC)c(O)c1` [Derivative 3, N-[N-[3-(3-hydroxy-4-methoxyphenyl)-3-methylbutyl]-L-α-aspartyl]-L-phenylalanine 1-methyl ester], the “Magnification of sweetness intensity relative to sucrose, in cola beverage” value [5] is reported as 37000 and the “Magnification of sweetness intensity relative to sucrose, in aqueous solution” value [7] is reported as 42400.
In the case of `COC(=O)[C@H](Cc1ccccc1)NC(=O)[C@H](CC(=O)O)NCCC(C)(C)c1ccc(O)c(C)c1` [Derivative 4, N-[N-[3-(3-methyl-4-hydroxyphenyl)-3-methylbutyl]-L-α-aspartyl]-L-phenyl alanine 1-methyl ester], the “Magnification of sweetness intensity relative to sucrose, in cola beverage” value [5] is reported as 29600 and the “Magnification of sweetness intensity relative to sucrose, in aqueous solution” value [7] is reported as 43500.
For `OC[C@H]1O[C@@H](O[C@H]2[C@H](O)[C@@H](O)C(O)O[C@@H]2CO)[C@H](O)[C@@H](O)[C@H]1O` (stereo partly shown) [lactose], the “magnification of sweetness intensity of filler used for calculation” value [10] is given as 0.2.
